A short description of series [1]: Aqueous stability (HPLC-based assay). As to conditions: 50 μM, 60 h. The series is classed as physicochemical. The protocol:
HPLC analyses were performed as described under the Compound characterization section. The method used a Waters Acquity UPLC® HSS C18 SB column (2.1 × 50 mm, 1.8 µm) thermostated at 40 °C, injection volume, 10 µL; flow rate, 0.3 mL/min; detector λ, 280 nm; mobile phase A: 0.1 % TFA (v/v) in water; mobile phase B: MeCN. Method: 0–9 min, 5 % – 95 % B; 9 – 11 min, 95 % B; 11 – 11.5 min, 95 % - 5% B.
Compound 7 stock solution (1 mM) was prepared in DMSO, while internal standard (caffeine, 1 mM) was dissolved in buffer (PBS pH 7.4). The aqueous stability solution was prepared by mixing 1400 µL buffer, 400 µL MeCN, 100 µL internal standard stock solution, and 100 µL compound stock solution in a HPLC vial to give 50 μM compound, 50 μM internal standard, 20 % MeCN, and 5 % DMSO in buffer, which was injected immediately and then at hourly intervals for 60 h while being incubated at 37 °C. The analyte areas under curve (AUCs) were normalized on internal standard AUCs.

A further series can be described thus: Kinetic solubility. The series is classed as physicochemical. As to conditions: PBS pH 7.4 with 5 % DMSO, pH 7.4, aqueous with cosolvent or surfactant or cyclodextrin, kinetic from dmso stock; PBS with 5 % DMSO. As for the experimental part: The solubility of compound 7 was determined in buffer (PBS pH 7.4) containing 5 % DMSO. Serial dilutions of 7 were prepared in DMSO at concentrations of 4 mM, 2 mM, 1.5 mM, 1 mM, and 0.2 mM. The assay was performed in 96-well microplates in duplicate. Briefly, to 190 µL of buffer, 10 µL of the compound stock solution in DMSO was added. The plate was shaken and the absorbance at 620 nm was measured using a plate reader (Synergy H4, BioTek Instruments, Inc., Santa Clara, CA, USA) in area scan mode (5 × 5 measurements per well). The mean absorbance was then compared relative to the blank to determine the solubility of the compound at each concentration tested.

The test system of the next series is MCF7 cells. As to the kind of experiment: Proliferation assay (CFSE-labeled cells, flow cytometry). The class given is cell-based, human. As to conditions: 72 h. The protocol:
To assess the effect of cathepsin V inhibitors on cell proliferation, MCF7 cells were fluorescently labeled with carboxyfluorescein succinimidyl ester (CFSE; ImmunoChemistry Technologies, Bloomington, MN, USA) in PBS for 15 min at room temperature according to the manufacturer’s instructions. Cells were washed with PBS, resuspended in complete medium, seeded (at 4 × 10^4 cells/well) into 24-well plates, and allowed to adhere overnight. Cells were then treated with the following inhibitors: compound 7 (10 μM), E-64d (10 μM), CLIK-148 (1 μM), LHVS (10 nM), pepstatin (20 μM), their combinations, or DMSO (0.1 %) in 500 μL of medium for 72 h at 37 °C. To prepare cells for flow cytometry, cells were detached and transferred to round-bottomed polystyrene tubes and washed with PBS. Before measurement, 7-aminoactinomycin D (7-AAD; ImmunoChemistry Technologies, Bloomington, MN, USA) was added according to the manufacturer’s instructions to exclude dead cells. Therefore, the green fluorescence arising from CFSE was monitored only for viable cells. The measurement was performed using a FACSCalibur instrument (BD Biosciences, San Jose, CA, USA).

The subject of series [2] is U-937-derived macrophages. As to the kind of experiment: Intracellular elastin-FITC degradation. The series is classed as cell-based, human. As for the experimental part: To evaluate the effect of the inhibitors on the elastolytic activity of cathepsin V, we assessed the intracellular degradation of elastin-FITC, a soluble bovine neck ligament elastin that is heavily labeled with FITC such that the fluorescence of the conjugate is quenched. Upon proteolysis, fluorescence is recovered and can be detected. U-937 cells, differentiated into macrophage-like cells, were seeded (at 1 × 10^5 cells/well) into 24-well plates with 500 μL of medium supplemented with 50 nM PMA. Inhibitors or DMSO (0.1 %) and elastin-FITC (10 μg/mL; AnaSpec, Fermont, CA, USA) were added to the medium and incubated for 24 h at 37 °C. Cells were detached and washed with PBS, and propidium iodide (BD Bioscience) was added to exclude dead cells. Therefore, green fluorescence arising from elastin-FITC degradation was monitored only for viable cells. The measurement was performed using a FACSCalibur instrument (BD Biosciences).

The next series has as its system NK-92 cells. As to the kind of experiment: Cell viability assay (MTS). The series is classed as cell-based. As to conditions: up to 10 μM, 24 h. The protocol:
(§1) The effect of compound 7 on the viability of NK-92, TALL-104, and K-562 cells was evaluated using the MTS [3-(4,5-dimethylthiazol-2-yl)-5-(3-carboxymetoxyphenyl)-2-(4-sulfophenyl)–2H-tetrazolium] colorimetric assay (CellTiter 96 Aqueous One Solution Cell Proliferation Assay, Promega, Madison, WI, USA). NK-92, TALL-104, and K-562 cells were seeded at 2.5 × 10^4, 1 × 10^5, and 1 × 10^4 cells/well, respectively, into a 96-well microplate and treated with inhibitors (2.5, 5, or 10 µM) or DMSO (0.1 %) for 24 h. After incubation, 10 µL of the reagent MTS was added to the wells, and the absorbance of formazan was measured at 492 nm on a Tecan Infinite M1000 (Mannedorf, Switzerland). Cell viability (%) was expressed as the ratio between absorbance in the presence of the compounds and in the presence of DMSO. All assays were performed in quadruplicate and repeated at least twice.

The subject of a further series is TALL-104 cells. As to the kind of experiment: Cell viability assay (MTS). The series is classed as cell-based. As to conditions: up to 10 μM, 24 h. The protocol:
as §1

Turning to `O=C(NCc1cccc2ccccc12)NCC1CCN(C(=O)Oc2ccccc2)CC1` [Compound 7, Phenyl 4-((3-(naphthalen-1-ylmethyl)ureido)methyl)piperidine-1-carboxylate], the aqueous stability result in series [1] (PBS pH 7.4, 20 % MeCN, 5 % DMSO, 37 °C) is recorded as “stable for days”. In addition, the “difference between the last and the first timepoint (normalized AUC)” value in series [1] (PBS pH 7.4, 37 °C, smaller than experimental error) is listed as below 2%. The solubility (kinetic) in “Kinetic solubility” is 75 to 100 µM. In addition, the “increase of fluorescence intensity of CFSE-labeled cells compared to control cells” value in the series on MCF7 cells (10 μM, higher CFSE = less proliferation) is on record as 50.6 ± 5.1%. Besides, the “increase of relative CFSE fluorescence intensity, co-treatment with CLIK-148, LHVS, and compound 7 together” value in the series on MCF7 cells (compound 7 10 μM + CLIK-148 1 μM + LHVS 10 nM) worked out at 46.1 ± 5.2%. In addition, the “decrease of elastin-FITC degradation” value in series [2] (10 μM, 24 h, vs DMSO) worked out at 9.5 ± 1.6%. Further, the “elastin-FITC degradation, compound 7 added to CLIK-148” value in series [2] (compound 7 10 μM + CLIK-148, vs control cells and CLIK-148 alone) is “significantly decreased”. Moreover, the “viability of NK-92 cells” value in the series on NK-92 cells is reported as “not significantly reduced”. For the same molecule, in the series with TALL-104 cells, the “viability of TALL-104 cells” value is listed as “not significantly reduced”.

(Values after PMC9459403, “New inhibitors of cathepsin V impair tumor cell proliferation and elastin degradation and increase immune cell cytotoxicity” (Computational and Structural Biotechnology Journal, 2022).)
